Read-outs that look alike come from different tables or passages of the source.
Experiments:
[1] = target: GSK3α (GST-full length GSK3α) (Homo sapiens (Human), UniProt P49840); assay: GSK3α TR-FRET kinase assay; assay type: biochemical; conditions: IC50
Description: TR-FRET Assay: The assay was performed in a white, 384 well, low volume, flat bottom plate (Grenier). After a 30 minute preincubation in assay buffer with the indicated concentration of compound, the kinase activity was initiated by the addition of the substrates. 1 nM GSK3α (GST-full length GSK3α [SignalChem G08-10G]) or 1 nM GSK3b (GST-full length GSK3b: [SignalChem G08-9G]) were then incubated at ambient temperature for 100 minutes in 10 μL of 50 mM Tris, pH 7.5, 20 mM MgCl2, 0.05 mM DTT, 100 μg/mL BSA and 1% DMSO, with 200 nM biotinylated peptide substrate (biotinylated and S645 phosphorylated glycogen synthase 631-650) and either 4 μM ATP (GSK3α, Table 16) or 2 μM ATP (GSK3b, Table 16) or 1 mM ATP (Table 17). The kinase activity was quenched with 2 μL of 250 mM EDTA. A 10 μL volume of 40 nM Strepavidin-d2, 2 nM Tb^2+-pSer641 antibody in TR-FRET Detection Buffer (Invitrogen) was then added. After 60 min at room temperature the plate was read on Envision plate reader using Ex: 340 nm, Em: 615 nm and […]. The normalized 665/615 Signal ratio versus log compound concentration was analyzed by XLFIT to yield IC50 values.

[2] = target: GSK3b (GST-full length GSK3b) (Homo sapiens (Human), UniProt P49841); assay: GSK3b TR-FRET kinase assay; assay type: biochemical; conditions: IC50
Summary of the method: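 Readout: anti-pSer641 Tb antibody/streptavidin-d2 signal after 60 min, expressed as 665/615 ratio and fitted versus log concentration for IC50. Enzyme: 1 nM GST-GSK3 (α or β), compound-preincubated 30 min. Conditions: pH 7.5 Tris buffer with MgCl2, DTT, BSA; ATP at 4 or 2 μM, or 1 mM; 100 min.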

[3] = 1 nM GSK3α, 4 μM ATP, 30 minute preincubation, geometric mean, read-out: GSK3-A TR-FRET BIOCHEMICAL (TR-FRET), GMean
[4] = 1 nM GSK3b, 2 μM ATP, 30 minute preincubation, geometric mean, read-out: GSK3-B TR-FRET BIOCHEMICAL (TR-FRET), GMean
[5] = read-out: GSK3-A (TR-FRET 1 mM ATP), GMean, 1 mM ATP, geometric mean
[6] = read-out: GSK3-B (TR-FRET 1 mM ATP), GMean, 1 mM ATP, geometric mean

Sequence of GSK3α (GST-full length GSK3α) (P49840 whole entry): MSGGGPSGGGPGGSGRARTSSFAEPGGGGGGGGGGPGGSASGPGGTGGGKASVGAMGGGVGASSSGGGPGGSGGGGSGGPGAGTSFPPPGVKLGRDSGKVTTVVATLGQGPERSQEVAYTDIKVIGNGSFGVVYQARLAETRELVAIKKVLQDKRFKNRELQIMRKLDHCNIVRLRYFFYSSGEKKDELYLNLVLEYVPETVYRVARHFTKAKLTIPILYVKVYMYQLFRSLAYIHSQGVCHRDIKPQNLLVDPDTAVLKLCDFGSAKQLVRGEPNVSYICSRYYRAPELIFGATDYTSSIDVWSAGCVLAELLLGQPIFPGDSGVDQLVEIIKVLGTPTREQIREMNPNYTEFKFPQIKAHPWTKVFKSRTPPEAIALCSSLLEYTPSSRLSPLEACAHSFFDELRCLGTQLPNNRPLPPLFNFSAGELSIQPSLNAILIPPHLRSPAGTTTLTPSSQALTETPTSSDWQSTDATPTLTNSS
Sequence of GSK3b (GST-full length GSK3b) (P49841 whole entry): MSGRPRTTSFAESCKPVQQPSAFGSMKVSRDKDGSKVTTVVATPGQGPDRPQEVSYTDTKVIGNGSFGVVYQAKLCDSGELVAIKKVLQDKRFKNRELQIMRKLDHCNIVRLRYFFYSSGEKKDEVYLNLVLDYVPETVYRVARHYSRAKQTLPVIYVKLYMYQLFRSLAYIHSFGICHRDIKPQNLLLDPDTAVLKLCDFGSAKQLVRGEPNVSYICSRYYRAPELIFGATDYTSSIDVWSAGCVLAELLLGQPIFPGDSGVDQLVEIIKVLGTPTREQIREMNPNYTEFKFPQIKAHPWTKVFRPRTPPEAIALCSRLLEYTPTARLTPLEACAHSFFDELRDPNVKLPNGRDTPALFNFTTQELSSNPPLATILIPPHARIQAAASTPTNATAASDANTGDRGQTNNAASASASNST

Structure (SMILES) | IC50 [1, 3] | IC50 [2, 4] | other results
CCC1(c2cccc(N3CCCCC3)c2)C2=C(CC(C)(C)CC2=O)Nc2n[nH]cc21 (centres unmarked) [Compound 801320] | 100 to 1000 nM | 100 to 1000 nM | –
CCC1(c2cccc(C(C)C)c2)C2=C(CC(C)(C)CC2=O)Nc2n[nH]cc21 (centres unmarked) [Compound 801322] | ≤ 100 nM | 100 to 1000 nM | –
CCC1(c2cccc(Br)c2)C2=C(CC(C)(C)CC2=O)Nc2n[nH]c(C(F)(F)F)c21 (centres unmarked) [Compound 801324] | ≤ 100 nM | ≤ 100 nM | –
CC(C)(C)Cc1[nH]nc2c1C1(CCc3cccc(F)c31)C1=C(CC(C)(C)CC1=O)N2 (centres unmarked) [Compound 801351] | > 1670 nM | 100 to 1000 nM | –
CC1(C)CC(=O)C2=C(C1)Nc1n[nH]cc1C21CCc2c(F)cccc21 (centres unmarked) [Compound 801357] | 100 to 1000 nM | > 1670 nM | –
CC1(C)CC(=O)C2=C(C1)Nc1n[nH]c(Br)c1C21CCc2c(F)cccc21 (centres unmarked) [Compound 801358] | ≤ 100 nM | ≤ 100 nM | –
CC1(C)CC(=O)C2=C(C1)Nc1n[nH]cc1[C@@]2(C)c1cccc(-c2ccccc2)c1 [Compound 801366] | > 5000 nM | > 5000 nM | –
CC1(C)CC(=O)C2=C(C1)Nc1n[nH]cc1[C@]2(C)c1cccc(-c2ccccc2)c1 [Compound 801367] | ≤ 100 nM | 100 to 1000 nM | –
CCC1(c2cccc(-c3ccccc3)c2)C2=C(CC(C)(C)CC2=O)Nc2n[nH]cc21 (centres unmarked) [Compound 801369] | > 5000 nM | > 5000 nM | –
CCC1(c2ccccc2)C2=C(CSCC2=O)Nc2n[nH]cc21 (centres unmarked) [Compound 801406] | – | – | IC50 ([1]; 1 nM GSK3α, 4 μM ATP, 30 minute preincubation, read-out: GSK3-A TR-FRET BIOCHEMICAL (TR-FRET)): 1000 to 5000 nM; IC50 ([2]; 1 nM GSK3b, 2 μM ATP, 30 minute preincubation, read-out: GSK3-B TR-FRET BIOCHEMICAL (TR-FRET)): > 5000 nM
CC[C@@]1(c2cccc(-c3ccncc3)c2)C2=C(CC(C)(C)CC2=O)Nc2n[nH]cc21 [Compound 801412] | > 5000 nM | > 5000 nM | –
CCC1(c2cccc(-c3ccncc3)c2)C2=C(CC(C)(C)CC2=O)Nc2n[nH]cc21 (centres unmarked) [Compound 801413] | ≤ 100 nM | ≤ 100 nM | IC50 [1, 5]: 100 to 1000 nM; IC50 [2, 6]: 1000 to 5000 nM
CCC1(c2cccc(-c3cnn(C)c3)c2)C2=C(CC(C)(C)CC2=O)Nc2n[nH]c(C(F)(F)F)c21 (centres unmarked) [Compound 801445] | ≤ 100 nM | ≤ 100 nM | –
CCC1(c2cccc(OCCOC)c2)C2=C(CC(C)(C)CC2=O)Nc2n[nH]cc21 (centres unmarked) [Compound 801446] | 100 to 1000 nM | > 1670 nM | –
CCC1(c2cccc(OC)c2)C2=C(CC(C)(C)CC2=O)Nc2n[nH]cc21 (centres unmarked) [Compound 801447] | 100 to 1000 nM | 1000 to 5000 nM | –
CCC1(c2cccc(OC(C)C)c2)C2=C(CC(C)(C)CC2=O)Nc2n[nH]cc21 (centres unmarked) [Compound 801448] | ≤ 100 nM | 100 to 1000 nM | –
CCC1(c2cccc(C(F)(F)F)c2)C2=C(CC(C)(C)CC2=O)Nc2n[nH]c(Br)c21 (centres unmarked) [Compound 802358] | ≤ 100 nM | ≤ 100 nM | –
CC1(C)CC(=O)C2=C(C1)Nc1n[nH]c(C(F)(F)F)c1C21CCc2c(F)cccc21 (centres unmarked) [Compound 806568] | 1000 to 5000 nM | 100 to 1000 nM | –
Cc1cccc2c1CCC21C2=C(CC(C)(C)CC2=O)Nc2n[nH]cc21 (centres unmarked) [Compound 806603] | ≤ 100 nM | 100 to 1000 nM | –
CCC1(c2cccc(N3CCNCC3)c2)C2=C(CC(C)(C)CC2=O)Nc2n[nH]cc21 (centres unmarked) [Compound 806604] | > 1670 nM | > 5000 nM | –
CC1(C)CC(=O)C2=C(C1)Nc1n[nH]cc1C2(C)c1cc(Cl)ccc1Cl (centres unmarked) [Compound 806605] | 1000 to 5000 nM | > 5000 nM | –
CC[C@@]1(c2ccccc2)C2=C(C[C@@H](C(F)(F)F)CC2=O)Nc2n[nH]cc21 [Compound 806607] | > 5000 nM | > 5000 nM | –
CC[C@]1(c2ccccc2)C2=C(C[C@@H](C(F)(F)F)CC2=O)Nc2n[nH]cc21 [Compound 806608] | 100 to 1000 nM | > 1670 nM | –
CC[C@]1(c2ccccc2)C2=C(C[C@H](C(F)(F)F)CC2=O)Nc2n[nH]cc21 [Compound 806609] | 100 to 1000 nM | > 1670 nM | –
CC[C@@]1(c2ccccc2)C2=C(C[C@H](C(F)(F)F)CC2=O)Nc2n[nH]cc21 [Compound 806611] | > 5000 nM | > 5000 nM | –

Structure (SMILES) | IC50 [1, 3] | IC50 [2, 4] | other results
CC1(C)CC(=O)C2=C(C1)Nc1n[nH]cc1[C@@]21CCc2c(F)cccc21 [Compound 806632] | > 1670 nM | > 5000 nM | –
CC1(C)CC(=O)C2=C(C1)Nc1n[nH]cc1[C@]21CCc2c(F)cccc21 [Compound 806633] | ≤ 100 nM | 100 to 1000 nM | –
CCC1(c2cccc(-c3ccncn3)c2)C2=C(CC(C)(C)CC2=O)Nc2n[nH]cc21 (centres unmarked) [Compound 806637] | ≤ 100 nM | 100 to 1000 nM | –
CC1(C)CC(=O)C2=C(C1)Nc1n[nH]c(Br)c1[C@@]21CCc2c(F)cccc21 [Compound 806938] | 100 to 1000 nM | 1000 to 5000 nM | –
CC1(C)CC(=O)C2=C(C1)Nc1n[nH]c(Br)c1[C@]21CCc2c(F)cccc21 [Compound 806939] | ≤ 100 nM | ≤ 100 nM | –
CC[C@]1(c2cccc(N(C)C(C)=O)c2)C2=C(CC(C)(C)CC2=O)Nc2n[nH]cc21 [Compound 810359] | > 5000 nM | > 5000 nM | –
CCC1(c2cccc(COC)c2)C2=C(CC(C)(C)CC2=O)Nc2n[nH]cc21 (centres unmarked) [Compound 810360] | ≤ 100 nM | 100 to 1000 nM | –
CCC1(c2cccc(COC)c2)C2=C(CC(C)(C)CC2=O)Nc2n[nH]cc21 (centres unmarked) [Compound 810362] | > 1670 nM | > 5000 nM | –
CCC1(c2cccc(N3CCOCC3)c2)C2=C(CC(C)(C)CC2=O)Nc2n[nH]cc21 (centres unmarked) [Compound 810363] | 100 to 1000 nM | 100 to 1000 nM | –
CC[C@@]1(c2cccc(N3CCOCC3)c2)C2=C(CC(C)(C)CC2=O)Nc2n[nH]cc21 [Compound 810364] | > 5000 nM | > 5000 nM | –
CCC1(c2cccc(Br)c2)C2=C(CC(C)(C)CC2=O)Nc2n[nH]c(C(F)(F)F)c21 (centres unmarked) [Compound 810365] | > 1670 nM | > 1670 nM | –
CC[C@@]1(c2cccc(N3CCCCC3)c2)C2=C(CC(C)(C)CC2=O)Nc2n[nH]cc21 [Compound 810371] | > 5000 nM | > 5000 nM | –
CC[C@@]1(c2cccc(C(C)C)c2)C2=C(CC(C)(C)CC2=O)Nc2n[nH]cc21 [Compound 810373] | ≤ 100 nM | ≤ 100 nM | IC50 [1, 5]: 100 to 1000 nM; IC50 [2, 6]: 1000 to 5000 nM
CC[C@]1(c2cccc(C(C)C)c2)C2=C(CC(C)(C)CC2=O)Nc2n[nH]cc21 [Compound 810375] | 1000 to 5000 nM | > 5000 nM | –
CC1(C)CC(=O)C2=C(C1)Nc1n[nH]cc1C2(C)c1cc(C(F)(F)F)ccc1F (centres unmarked) [Compound 810376] | ≤ 100 nM | 100 to 1000 nM | –
CC1(C)CC(=O)C2=C(C1)Nc1n[nH]cc1C2(C)c1cc(Cl)ccc1F (centres unmarked) [Compound 810377] | 100 to 1000 nM | 1000 to 5000 nM | –
CCC1(c2cccc(N3CCN(C)CC3)c2)C2=C(CC(C)(C)CC2=O)Nc2n[nH]cc21 (centres unmarked) [Compound 810379] | > 1670 nM | > 5000 nM | –
CCC1(c2cccc(C(F)(F)F)c2)C2=C(CC(C)CC2=O)Nc2n[nH]cc21 (centres unmarked) [Compound 810451] | ≤ 100 nM | ≤ 100 nM | –
CCC1(c2cccc(C(F)(F)F)c2)C2=C(CC(C)CC2=O)Nc2n[nH]cc21 (centres unmarked) [Compound 810452] | 100 to 1000 nM | 1000 to 5000 nM | –
CCC1(c2cccc(C(F)(F)F)c2)C2=C(CC(C)CC2=O)Nc2n[nH]cc21 (centres unmarked) [Compound 810453] | > 5000 nM | > 5000 nM | –
CC1(C)CC(=O)C2=C(C1)Nc1n[nH]c(Br)c1C21CCNc2ccccc21 (centres unmarked) [Compound 810460] | 1000 to 5000 nM | > 5000 nM | –
CCC1(c2cccc(C(F)(F)F)c2)C2=C(CC(C)(C)CC2=O)Nc2n[nH]c(Br)c21 (centres unmarked) [Compound 810464] | 1000 to 5000 nM | 1000 to 5000 nM | –
CCC1(c2cccc(C(F)(F)F)c2)C2=C(CC(C)(C)CC2=O)Nc2n[nH]c(Br)c21 (centres unmarked) [Compound 810466] | ≤ 100 nM | ≤ 100 nM | IC50 [1, 5]: ≤ 100 nM; IC50 [2, 6]: 100 to 1000 nM
CCC1(CC)C2=C(CC(C)(C)CC2=O)Nc2n[nH]cc21 [Compound 810505] | – | – | IC50 ([1]; 1 nM GSK3α, 4 μM ATP, 30 minute preincubation, Table 16, read-out: GSK3-A TR-FRET BIOCHEMICAL (TR-FRET)): 1000 to 5000 nM; IC50 ([2]; 1 nM GSK3b, 2 μM ATP, 30 minute preincubation, Table 16, read-out: GSK3-B TR-FRET BIOCHEMICAL (TR-FRET)): > 5000 nM

Source: US20250313563A1, “GLYCOGEN SYNTHASE KINASE 3 INHIBITORS AND USES THEREOF” (The Broad Institute, Inc., priority 2022, published 2025)
